Assay results reported in patent US20220098197A1, “SALTS OF HETEROCYCLIC COMPOUND AND USE THEREOF” (priority 2019, published 2022).

Assays:
CS-induced ALI mice [1] = experiment: CS-induced lung injury model: inflammatory cells counting in BALF; type: in vivo, Balb/c mice; conditions: intragastric before CS exposure, 7 days; CT-NA 10 and 30 mg/kg, Dex 1 mg/kg; BALF 24 hrs after last CS; p<0.01
Procedure: Specific pathogen-free (SPF) female Balb/c mice (22-28 g; aged 8 weeks) were purchased from Shanghai SIPPR-BK Experimental Animal Co., Ltd. […] Model preparation: The mice were randomly divided into 5 groups (12 mice in each group), which were the control group (the mice were exposed to fresh air), the saline group (the mice were exposed to cigarette smoke), dexamethasone (Dex) group (1 mg/kg) (the mice were exposed to cigarette smoke), CT-NA 10 mg/kg group and CT-NA 30 mg/kg group (the mice were exposed to cigarette smoke). According to the grouping, the mice were intragastrically administered saline, Dex and CT-NA, respectively. Thereafter, the mice were exposed to fresh air or cigarette smoke generated from 3R4F research-grade cigarettes (containing about 600 mg TPM/m^3 and 29.9 mg nicotine/m^3) in a cuboid plastic box (65×50x×45 cm). Ten cigarettes were burned every day for seven days. […] 24 hrs after the last exposure to the cigarette smoke, the partial pressure of oxygen (PO2) of all mice was measured by the Moor VMS-OXY™ measuring instrument, which was used to measure the oxygenated/deoxygenated hemoglobin concentration and oxygen saturation (percentage) in the microcirculation at the wavelength range of 500 to 650 nm. […] The supernatant was aliquoted and stored at −80° C. until the cytokine or albumin concentration was measured. […]

CS-induced ALI mice [2] = experiment: CS-induced lung injury model: lung weight ratio (coefficient); type: in vivo, Balb/c mice; conditions: CT-NA 10 and 30 mg/kg intragastric; CS exposure; p<0.05
Procedure: Model preparation: The mice were randomly divided into 5 groups (12 mice in each group), which were the control group (the mice were exposed to fresh air), the saline group (the mice were exposed to cigarette smoke), dexamethasone (Dex) group (1 mg/kg) (the mice were exposed to cigarette smoke), CT-NA 10 mg/kg group and CT-NA 30 mg/kg group (the mice were exposed to cigarette smoke). According to the grouping, the mice were intragastrically administered saline, Dex and CT-NA, respectively. Thereafter, the mice were exposed to fresh air or cigarette smoke generated from 3R4F research-grade cigarettes (containing about 600 mg TPM/m^3 and 29.9 mg nicotine/m^3) in a cuboid plastic box (65×50x×45 cm). Ten cigarettes were burned every day for seven days. After one cigarette was burned, the next cigarette was ignited. […] 24 hrs after the last exposure to the cigarette smoke, the partial pressure of oxygen (PO2) of all mice was measured by the Moor VMS-OXY™ measuring instrument, which was used to measure the oxygenated/deoxygenated hemoglobin concentration and oxygen saturation (percentage) in the microcirculation at the wavelength range of 500 to 650 nm. […] As an index of pulmonary edema, the lung weight ratio was measured by dividing the individual lung weight of each mouse after aspirating the blood tissue from the lung surface, by the total body weight.

[3] = tested on: isolated peritoneal macrophages; experiment: Cell viability (MTT) assay with LPS/PGD2, peritoneal macrophages; type: cell-based, mice
[4] = tested on: isolated peritoneal macrophages; experiment: RT-PCR analysis, LPS- or PGD2-stimulated peritoneal macrophages; type: cell-based, mice; conditions: CT-NA 10 and 100 μM, P<0.05 or P<0.01
Procedure: The method was briefly described as follows. Thioglycolate (4%) was intraperitoneally injected to mice at a dose of 20 ml/kg of body weight for three consecutive days. 48 h after the last thioglycolate injection (on day 5), the peritoneal macrophages were isolated from the peritoneal lavage of the euthanized mice. The isolated peritoneal macrophages were added to a 12-well plate (4×10^5/well) and cultured at 37° C. Non-adherent cells were removed by gently washing three times with warm PBS. At this time, more than 90% of the cells were macrophages, which were cultured in DMEM/high glucose medium containing penicillin (100 U/ml), streptomycin (100 μg/ml) and 10% FBS at 37° C. After acclimation, serum-free DMEM/high glucose was added to a 12-well plate for 10-12 hrs, and then treated with different concentrations of LPS ([…]) for 24 hrs. Afterward, the supernatant of the peritoneal macrophages was collected to measure the protein level of PGD2 using ELISA kits according to the method of the instructions.
For ELISA and RT-PCR, RAW 264.7 macrophages were acclimated to two 12-well plates at 70-80% confluence. Thereafter, the medium in the 12-well plate was replaced with serum-free RPMI-1640 medium for 10-12 hrs and then exposed to CT-NA (10 and 100 μM) for 1 hour. […]

CN([C@@H]1CCc2c(CC(=O)[O-])c3cccnc3n2C1)S(=O)(=O)c1ccc(F)cc1.[Na+] [Sodium salt hydrate]
number of total cells, macrophages and neutrophils in BALF (CS-induced ALI mice [1]): significantly reduced
lung weight coefficient (CS-induced ALI mice [2]): partially reduced
cytotoxicity (MTT), LPS plus CT-NA ([3]; LPS (100 ng/ml) plus CT-NA up to 100 μM): non-toxic
cytotoxicity (MTT), PGD2 plus CT-NA ([3]; PGD2 (10 μM) plus CT-NA up to 100 μM): non-toxic
mRNA expressions of IL-1β, TNF-α, IL-6 and KC, LPS-stimulated ([4]; LPS, dose-dependent): reduced
mRNA expressions of IL-1β, TNF-α, IL-6 and KC, PGD2-stimulated ([4]; PGD2, dose-dependent): reduced
